# Reference: patent publication US9688760B2, “Anti-leukocyte adhesion for the mitigation of potential adverse events caused by CD3-specific binding domains” (AMGEN RESEARCH (MUNICH) GMBH, priority 2013, dated 2017)
# What was measured:
# HUVEC = assay: In vitro flow chamber: T cell-rolling and adhesion on HUVEC, long-term conditions; format: cell-based, human; details: 40 min
# Procedure: Human brain microvascular endothelial cells (HBMEC) (#1000, Sciencell Research Laboratories) or human umbilical vein endothelial cells (HUVEC) (#C-12200, Promocell) were used as endothelial cell-model. Cryopreserved HBMEC at passage 1 (>5×10^5 cells/ml) were first cultivated in fibronectin-coated Nunclon-treated 75 cm^2 cell culture flasks (#156499, Nunc) at 37° C. and 5% CO2 in a Heraeus Cytoperm 2 (Thermo Scientific) according to the manufacturer's instructions. Sub-cultivation of HBMEC was done with the Detach Kit (#C-41200, Promocell) consisting of HEPES-buffered balanced salt solution (#C-40000, Promocell), trypsin-EDTA solution (0.04%/0.03%) (#C-41000, Promocell) and trypsin neutralization solution (TNS, #C-41100, Promocell). Briefly, the medium was aspirated from the HBMEC-layer and cells were washed with 2 ml of HEPES-buffered balanced salt solution. Addition of 2 ml of trypsin-EDTA solution for 1-5 min at room temperature led to detachment of HBMEC from the flask bottom. Inactivation of trypsin-EDTA solution was performed by addition of 2 ml of trypsin neutralization solution to the cell suspension. Cells were centrifuged at 300 g for 4 min in a Heraeus Megafuge 40 (Thermo Scientific) and seeded at a cell density of 5×10^5 cells per gelatin-coated 75 cm^2 cell culture flask (#L7230, Biochrom). HBMEC for rolling and adhesion experiments were cultivated in RPMI 1640 medium (#FG1215, Biochrom) supplemented with Nu-Serum IV (10%) (#355505, BD Biosciences), dialyzed FBS (10%) (#SZ0115, Biochrom), MEM-vitamins (1%) (#K0373, Biochrom), L-glutamine (1%) (#K0283, Biochrom), sodium-pyruvate (1%) (#L0473, Biochrom), heparin (10 U/ml) (#L6510, Biochrom), and […] cell growth factor ECGS (30 μg/ml) (#02-102, Millipore). Cultivation of HUVEC was done in endothelial cell growth medium (#C-22010, Promocell) supplemented with dialyzed FBS (10%) (#SZ0115, Biochrom) using gelatin-coated 75 cm^2 cell culture flasks. Sub-cultivation of HUVEC was performed with the Detach Kit ([…], Promocell) and cells were seeded at a cell density of 4.0-7.5×10^5 cells per 75 cm^2 cell culture flask.
# Isolation of human PBMC from blood was performed by modified density gradient centrifugation as described elsewhere. Briefly, 15-20 ml of freshly drawn heparinized blood was transferred in Biocoll (#L6115, Biochrom)-containing Leukosep tubes (#227290, Greiner bio-one) and centrifuged in a Hettich Rotanta 460 RS Type 5606 (Hettich Laborapparate) at 1066 g for 15 min. After removal of the plasma fraction the PBMC containing phase was transferred in a new tube and washed twice with FACS-buffer (D-PBS #L1820, 5% FBS #SO115, Biochrom). Erythrocyte lysis was performed with lysis buffer (8.29 g/l NH4Cl, 1.00 g/l KHCO3, 0.037 g/l EDTA) for 5 min at room temperature. […]
# [1] = system: ICAM-1 and P-selectin on HUVEC; assay: Immunofluorescence staining of HUVEC after T cell-rolling; format: cell-based, human; details: T cells pre-incubated with 10 ng/ml Blinatumomab vs untouched T cells
# Procedure: After rolling and adhesion of T cells on HBMEC or HUVEC under flow conditions, endothelial cells were fixed using 150 μl of 4% paraformaldehyde solution (#P-6148, Sigma-Aldrich) for 30 min at 4° C. μ-slides were rinsed with 150 μl of D-PBS and subjected to immunofluorescence staining. HBMEC were first blocked with 150 μl of avidin blocking reagent (#PHA-70871, reagent 1, Dianova) for 10 min at room temperature, washed with 150 μl of D-PBS followed by incubation with 150 μl of biotin blocking reagent (#PHA-70871, reagent 2, Dianova). All following staining procedures were performed in 150 μl of D-PBS with 5% FBS at room temperature in the dark, and washing steps were done in 150 μl of D-PBS. μ-slides were incubated with 5 μg/ml polyclonal rabbit anti-human VCAM-1 (#106777, abcam) for 1 h. After washing, 20 μg/ml goat anti-rabbit IgG-DyLight350 was added for 1 h followed by washing and incubation with 15 μg/ml mouse anti-human P-selectin IgG1 (#BBA30, R&D Systems) for 2 h. After washing, goat anti-mouse IgG-Alexa488 (1:100) (#A10680, Invitrogen) was added for 1 h. […] VCAM-1 staining was monitored with a CFL EPI-FL Filter Block UV-2A (#MBE41200, Nikon), P-selectin staining with a CFL EPI-FL Filter Block GFP-B (#MBE44740, Nikon), and ICAM-1 staining with an EPI-FL Filter Block Cy3 (#MXU96213, Nikon). […]
substance,measurement,setting,value
Blinatumomab: recombinant CD19×CD3 bispecific scFv antibody consisting of four immunoglobulin variable domains assembled into a single polypeptide chain,increase of number of adhering T cells,"HUVEC; +AMG 103 10 ng/ml vs T cells alone, long-term",2.1 fold
same,mean T cell-rolling velocity±SD,"HUVEC; non-stimulated HUVEC (minocycline experiment), +AMG 103 10 ng/ml, control −AMG 103 169",127±41 μm/sec
same,surface expression of adhesion molecules on HUVEC,[1],increased surface expression of adhesion molecules ICAM-1 and P-selectin
